Target: Serine/threonine-protein kinase pim-2 (Homo sapiens, UniProt Q9P1W9)
Experiment: Inhibition of Pim2 kinase

Sequence of Serine/threonine-protein kinase pim-2 (Q9P1W9 whole entry): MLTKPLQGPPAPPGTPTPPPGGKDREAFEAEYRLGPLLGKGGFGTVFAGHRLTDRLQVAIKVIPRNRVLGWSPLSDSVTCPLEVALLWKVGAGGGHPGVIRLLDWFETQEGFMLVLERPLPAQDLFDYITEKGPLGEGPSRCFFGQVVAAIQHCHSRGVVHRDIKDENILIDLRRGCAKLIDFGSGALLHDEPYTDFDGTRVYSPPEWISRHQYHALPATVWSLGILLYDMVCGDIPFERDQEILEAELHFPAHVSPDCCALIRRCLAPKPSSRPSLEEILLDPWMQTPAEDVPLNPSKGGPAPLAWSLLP

SMILES	IC50 [µM]
NCCc1ccc(OC(=O)c2cc(O)c(O)c(O)c2)cc1 [GALLOYL TYRAMINE]	161
C[C@@H]1O[C@@H](Oc2c(-c3ccc(O)c(O)c3)oc3cc(O)cc(O)c3c2=O)[C@H](O)[C@H](O)[C@H]1O [QUERCITRIN]	25

Source: ChEMBL document CHEMBL1144687, “Pim2 inhibitors from the Papua New Guinean plant Cupaniopsis macropetala” (J Nat Prod, 2008)
